Experimental data taken from PMC6199744, “Development of Chemical Proteomics for the Folateome and Analysis of the Kinetoplastid Folateome” (ACS Infectious Diseases, 2018).
Where two headings read alike, the source gives them in different places.

Tests used:
Type in all cases: binding
[1] = target: T1, HeLa cell extract proteins (Homo sapiens, UniProt Q9UBM7)
T1 construct: endogenous in cells; host or cells: HeLa cell extract
T1 sequence (Q9UBM7 1-475): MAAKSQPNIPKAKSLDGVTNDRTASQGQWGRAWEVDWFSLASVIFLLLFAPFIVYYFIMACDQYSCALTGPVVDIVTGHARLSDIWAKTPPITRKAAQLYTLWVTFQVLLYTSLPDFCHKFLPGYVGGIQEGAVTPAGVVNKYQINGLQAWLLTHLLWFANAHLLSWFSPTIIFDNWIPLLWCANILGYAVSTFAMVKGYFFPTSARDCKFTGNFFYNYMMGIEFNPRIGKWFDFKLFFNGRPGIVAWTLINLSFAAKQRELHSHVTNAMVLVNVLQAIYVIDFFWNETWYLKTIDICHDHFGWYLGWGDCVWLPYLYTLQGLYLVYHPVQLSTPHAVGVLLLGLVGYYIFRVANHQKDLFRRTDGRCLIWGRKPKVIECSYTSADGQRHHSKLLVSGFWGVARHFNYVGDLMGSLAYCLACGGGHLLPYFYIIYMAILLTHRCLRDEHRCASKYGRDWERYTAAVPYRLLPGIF

[2] = target: T2, HeLa cell extract proteins (Homo sapiens, UniProt P25705)
T2 construct: endogenous in cells; host or cells: HeLa cell extract
T2 sequence (P25705 44-553): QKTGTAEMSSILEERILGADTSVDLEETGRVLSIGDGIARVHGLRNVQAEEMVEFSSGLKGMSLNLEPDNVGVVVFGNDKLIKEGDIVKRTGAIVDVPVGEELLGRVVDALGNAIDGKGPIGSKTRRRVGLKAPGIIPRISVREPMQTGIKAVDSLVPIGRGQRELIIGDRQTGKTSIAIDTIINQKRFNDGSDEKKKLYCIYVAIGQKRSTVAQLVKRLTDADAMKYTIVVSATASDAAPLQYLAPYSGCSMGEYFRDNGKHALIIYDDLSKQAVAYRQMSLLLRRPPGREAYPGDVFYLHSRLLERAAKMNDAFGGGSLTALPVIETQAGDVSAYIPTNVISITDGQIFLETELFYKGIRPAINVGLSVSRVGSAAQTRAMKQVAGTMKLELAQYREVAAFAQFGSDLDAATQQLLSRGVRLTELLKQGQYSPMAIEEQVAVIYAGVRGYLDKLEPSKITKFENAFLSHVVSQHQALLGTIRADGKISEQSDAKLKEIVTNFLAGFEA

[3] = target: T3, HeLa cell extract proteins (Homo sapiens, UniProt Q8N1F7)
T3 construct: endogenous in cells; host or cells: HeLa cell extract
T3 sequence (Q8N1F7 1-819): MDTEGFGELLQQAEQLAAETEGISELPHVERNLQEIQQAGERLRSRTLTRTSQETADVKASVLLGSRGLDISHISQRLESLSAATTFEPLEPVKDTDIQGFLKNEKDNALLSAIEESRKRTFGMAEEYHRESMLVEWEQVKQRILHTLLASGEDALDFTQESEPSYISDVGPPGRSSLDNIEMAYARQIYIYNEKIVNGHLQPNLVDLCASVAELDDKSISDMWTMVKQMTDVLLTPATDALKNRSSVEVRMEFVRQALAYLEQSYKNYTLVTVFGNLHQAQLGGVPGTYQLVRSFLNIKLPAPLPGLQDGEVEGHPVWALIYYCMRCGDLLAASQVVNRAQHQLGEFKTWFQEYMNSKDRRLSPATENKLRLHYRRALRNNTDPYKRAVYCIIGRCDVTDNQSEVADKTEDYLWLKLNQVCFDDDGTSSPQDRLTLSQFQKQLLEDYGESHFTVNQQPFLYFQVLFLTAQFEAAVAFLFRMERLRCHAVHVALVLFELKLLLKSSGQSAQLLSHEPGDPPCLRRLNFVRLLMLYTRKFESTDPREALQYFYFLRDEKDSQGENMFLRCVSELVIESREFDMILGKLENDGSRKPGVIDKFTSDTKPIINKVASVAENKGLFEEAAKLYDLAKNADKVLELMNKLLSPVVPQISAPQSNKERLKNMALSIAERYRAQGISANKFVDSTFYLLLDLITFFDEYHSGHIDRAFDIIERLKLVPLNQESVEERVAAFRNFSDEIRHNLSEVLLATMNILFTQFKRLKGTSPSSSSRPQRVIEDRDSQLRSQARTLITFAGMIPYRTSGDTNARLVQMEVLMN

[4] = target: T4, HeLa cell extract proteins (Homo sapiens, UniProt P31943)
T4 construct: endogenous in cells; host or cells: HeLa cell extract
T4 sequence (P31943 1-449): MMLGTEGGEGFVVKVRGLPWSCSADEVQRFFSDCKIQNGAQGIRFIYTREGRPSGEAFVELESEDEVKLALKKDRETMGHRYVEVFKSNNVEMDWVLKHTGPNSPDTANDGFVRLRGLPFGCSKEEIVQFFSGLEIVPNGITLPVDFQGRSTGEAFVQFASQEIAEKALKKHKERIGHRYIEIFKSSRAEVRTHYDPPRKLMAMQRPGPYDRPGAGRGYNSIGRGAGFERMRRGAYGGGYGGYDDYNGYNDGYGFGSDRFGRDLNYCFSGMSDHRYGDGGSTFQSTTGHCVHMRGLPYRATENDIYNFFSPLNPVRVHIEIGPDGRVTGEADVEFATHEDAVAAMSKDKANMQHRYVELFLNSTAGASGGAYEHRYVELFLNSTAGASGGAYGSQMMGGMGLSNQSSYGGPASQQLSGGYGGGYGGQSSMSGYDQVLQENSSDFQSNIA

[5] = target: T5, HeLa cell extract proteins (Homo sapiens, UniProt P49588)
T5 construct: endogenous in cells; host or cells: HeLa cell extract
T5 sequence (P49588 1-968): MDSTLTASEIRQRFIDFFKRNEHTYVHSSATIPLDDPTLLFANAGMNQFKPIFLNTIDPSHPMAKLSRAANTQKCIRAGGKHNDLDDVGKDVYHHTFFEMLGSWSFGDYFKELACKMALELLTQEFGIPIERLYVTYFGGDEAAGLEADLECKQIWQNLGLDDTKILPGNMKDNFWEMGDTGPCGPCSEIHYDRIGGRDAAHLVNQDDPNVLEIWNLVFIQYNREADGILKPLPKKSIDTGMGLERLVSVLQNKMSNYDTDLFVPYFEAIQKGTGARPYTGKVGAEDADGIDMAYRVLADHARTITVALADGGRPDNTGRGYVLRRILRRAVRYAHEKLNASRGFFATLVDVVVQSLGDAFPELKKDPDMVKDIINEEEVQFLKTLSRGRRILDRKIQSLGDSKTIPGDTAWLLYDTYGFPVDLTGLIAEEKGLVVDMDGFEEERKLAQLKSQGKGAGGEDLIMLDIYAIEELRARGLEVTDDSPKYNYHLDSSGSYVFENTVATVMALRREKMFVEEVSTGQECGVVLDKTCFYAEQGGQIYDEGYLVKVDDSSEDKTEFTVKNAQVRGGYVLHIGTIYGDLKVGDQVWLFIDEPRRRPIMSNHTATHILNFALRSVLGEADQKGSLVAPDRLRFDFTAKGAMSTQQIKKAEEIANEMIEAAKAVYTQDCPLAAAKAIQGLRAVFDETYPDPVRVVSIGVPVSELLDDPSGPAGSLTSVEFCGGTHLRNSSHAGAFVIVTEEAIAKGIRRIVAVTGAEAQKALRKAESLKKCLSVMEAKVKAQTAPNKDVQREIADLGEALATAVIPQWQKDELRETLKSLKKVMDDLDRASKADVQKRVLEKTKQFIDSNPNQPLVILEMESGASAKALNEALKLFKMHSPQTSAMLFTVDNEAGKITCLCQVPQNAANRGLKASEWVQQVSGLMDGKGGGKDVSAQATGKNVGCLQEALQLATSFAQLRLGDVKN

Row | Structure (SMILES) | fold changes relative to vehicle control ([1]; HeLa, captured protein DHCR7) | fold changes relative to vehicle control ([2]; HeLa, captured protein ATP5A1) | fold changes relative to vehicle control ([3]; protein NUP93, HeLa) | fold changes relative to vehicle control ([4]; HeLa, captured protein HNRNPH1) | fold changes relative to vehicle control ([5]; HeLa, protein AARS) | fold changes relative to vehicle control ([1]; captured protein DHCR7, HeLa) | fold changes relative to vehicle control ([2]; HeLa, protein ATP5A1) | fold changes relative to vehicle control ([3]; captured protein NUP93, HeLa) | fold changes relative to vehicle control ([4]; HeLa, protein HNRNPH1) | fold changes relative to vehicle control ([5]; protein AARS, HeLa) | further results
1 | Nc1nc2c(c(=O)[nH]1)N(C=O)C(CNc1ccc(C(=O)N[C@@H](CCC(=O)O)C(=O)O)cc1)CN2 (some centres unmarked) [LEU, leucovorin] | 0.99 | 0.99 | 0.84 | 0.96 | 1.02 | – | – | – | – | – | –
2 | Nc1nc2[nH]cc(CCc3ccc(C(=O)N[C@@H](CCC(=O)O)C(=O)O)cc3)c2c(=O)[nH]1 [PTX, pemetrexed] | – | – | – | – | – | – | – | – | – | – | fold changes relative to vehicle control [1]: 0.98; fold changes relative to vehicle control [2]: 0.94; fold changes relative to vehicle control [3]: 0.91; fold changes relative to vehicle control [4]: 0.86; fold changes relative to vehicle control [5]: 1.1
3 | CCCCCCOc1ccc(Cc2cnc(N)nc2N)cc1 [compound 1] | – | – | – | – | – | 0.95 | 1 | 0.87 | 0.96 | 1.15 | –
4 | CCCCCCOc1cccc(Cc2cnc(N)nc2N)c1 [compound 2] | – | – | – | – | – | 1.03 | 0.97 | 0.96 | 1.02 | 1.96 | –
5 | Nc1nc2cccc(-c3ccccc3)c2n1Cc1ccc(Cl)c(Cl)c1 [compound 3] | – | – | – | – | – | 1.02 | 0.87 | 0.96 | 1 | 0.95 | –
6 | NCCOCCOCC(=O)Nc1nc2ncc(CNc3ccc(C(=O)NC(CCC(=O)O)C(=O)O)cc3)nc2c(=O)[nH]1 (centres unmarked) [compound 6] | 0.96 | 0.95 | 1.01 | 0.84 | 1.28 | – | – | – | – | – | –
7 | NCCCNc1ccc(C(=O)NC(CCC(=O)O)C(=O)O)cc1 (centres unmarked) [compound 7] | 0.98 | 0.99 | 0.9 | 0.92 | 1 | – | – | – | – | – | –
